What was measured:
[1] = target: Beta-3 adrenergic receptor (Homo sapiens, UniProt P13945); experiment: (§1) PDSP Secondary Binding target: ADRB3 - Compounds are tested at 10 uM concentration, plate are incubated at room temperature in the dark for 90 minutes. Reaction are stopped by vacuum filtration onto 0.3% polyethyleneimine soaked filter mats using Filtermate harvester. Scintillation cocktail is then melted onto microwave-dried filters on a hot plate and the radio activity is counted in Microbia counter.
Chain of Beta-3 adrenergic receptor (P13945 whole entry): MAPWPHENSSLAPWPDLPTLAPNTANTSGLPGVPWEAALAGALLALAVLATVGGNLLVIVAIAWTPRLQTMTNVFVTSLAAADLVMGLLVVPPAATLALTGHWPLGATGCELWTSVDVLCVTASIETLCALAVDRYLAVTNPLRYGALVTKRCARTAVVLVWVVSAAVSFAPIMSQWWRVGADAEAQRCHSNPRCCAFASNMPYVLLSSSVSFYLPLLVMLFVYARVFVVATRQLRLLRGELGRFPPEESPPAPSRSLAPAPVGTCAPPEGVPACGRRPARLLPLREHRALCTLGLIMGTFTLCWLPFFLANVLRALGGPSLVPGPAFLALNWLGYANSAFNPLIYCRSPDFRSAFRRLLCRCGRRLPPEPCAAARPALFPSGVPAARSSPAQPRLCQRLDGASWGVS

[2] = target: Beta-1 adrenergic receptor (Homo sapiens, UniProt P08588); experiment: as §1, with “ADRB1” for “ADRB3”
Chain of Beta-1 adrenergic receptor (P08588 whole entry): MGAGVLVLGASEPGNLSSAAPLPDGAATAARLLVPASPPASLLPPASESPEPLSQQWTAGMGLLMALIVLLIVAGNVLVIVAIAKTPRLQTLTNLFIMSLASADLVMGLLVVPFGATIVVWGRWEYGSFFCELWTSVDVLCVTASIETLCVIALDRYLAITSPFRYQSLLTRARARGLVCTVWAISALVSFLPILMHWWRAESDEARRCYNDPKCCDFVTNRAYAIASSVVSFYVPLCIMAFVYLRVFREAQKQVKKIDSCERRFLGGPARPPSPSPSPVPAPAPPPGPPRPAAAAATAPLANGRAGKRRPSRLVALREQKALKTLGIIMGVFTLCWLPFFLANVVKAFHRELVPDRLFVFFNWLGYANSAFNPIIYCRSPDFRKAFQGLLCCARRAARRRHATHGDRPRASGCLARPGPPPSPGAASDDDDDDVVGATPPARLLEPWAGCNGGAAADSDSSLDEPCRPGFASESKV

[3] = target: Delta-type opioid receptor (Homo sapiens, UniProt P41143); experiment: as §1, with “OPRD1” for “ADRB3”
Chain of Delta-type opioid receptor (P41143 whole entry): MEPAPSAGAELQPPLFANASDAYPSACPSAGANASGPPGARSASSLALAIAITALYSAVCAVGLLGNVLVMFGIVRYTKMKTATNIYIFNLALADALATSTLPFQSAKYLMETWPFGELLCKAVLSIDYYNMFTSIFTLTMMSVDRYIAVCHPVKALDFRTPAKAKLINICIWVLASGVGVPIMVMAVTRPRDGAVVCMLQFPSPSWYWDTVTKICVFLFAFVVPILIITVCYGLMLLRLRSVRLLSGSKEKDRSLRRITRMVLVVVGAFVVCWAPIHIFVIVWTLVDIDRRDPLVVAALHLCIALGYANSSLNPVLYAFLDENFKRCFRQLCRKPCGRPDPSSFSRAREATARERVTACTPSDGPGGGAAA

[4] = target: 5-hydroxytryptamine receptor 2A (Homo sapiens, UniProt P28223); experiment: as §1, with “HTR2A” for “ADRB3”
Chain of 5-hydroxytryptamine receptor 2A (P28223 whole entry): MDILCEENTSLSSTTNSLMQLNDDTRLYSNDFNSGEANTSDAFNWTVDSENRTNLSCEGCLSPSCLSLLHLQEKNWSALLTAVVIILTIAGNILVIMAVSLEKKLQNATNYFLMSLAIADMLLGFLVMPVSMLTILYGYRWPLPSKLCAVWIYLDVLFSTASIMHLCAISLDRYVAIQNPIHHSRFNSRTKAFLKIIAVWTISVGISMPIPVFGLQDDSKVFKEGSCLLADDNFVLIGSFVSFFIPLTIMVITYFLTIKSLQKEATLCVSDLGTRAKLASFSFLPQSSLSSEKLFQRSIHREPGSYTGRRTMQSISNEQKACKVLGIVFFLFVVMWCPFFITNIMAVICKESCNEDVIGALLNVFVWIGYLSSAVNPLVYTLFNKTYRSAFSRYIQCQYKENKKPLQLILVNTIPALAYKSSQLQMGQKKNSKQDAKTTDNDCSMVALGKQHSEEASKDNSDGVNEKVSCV

Histamine H1 receptor = Histamine H1 receptor (Homo sapiens, UniProt P35367); experiment: as §1, with “HRH1” for “ADRB3”
Chain of Histamine H1 receptor (P35367 whole entry): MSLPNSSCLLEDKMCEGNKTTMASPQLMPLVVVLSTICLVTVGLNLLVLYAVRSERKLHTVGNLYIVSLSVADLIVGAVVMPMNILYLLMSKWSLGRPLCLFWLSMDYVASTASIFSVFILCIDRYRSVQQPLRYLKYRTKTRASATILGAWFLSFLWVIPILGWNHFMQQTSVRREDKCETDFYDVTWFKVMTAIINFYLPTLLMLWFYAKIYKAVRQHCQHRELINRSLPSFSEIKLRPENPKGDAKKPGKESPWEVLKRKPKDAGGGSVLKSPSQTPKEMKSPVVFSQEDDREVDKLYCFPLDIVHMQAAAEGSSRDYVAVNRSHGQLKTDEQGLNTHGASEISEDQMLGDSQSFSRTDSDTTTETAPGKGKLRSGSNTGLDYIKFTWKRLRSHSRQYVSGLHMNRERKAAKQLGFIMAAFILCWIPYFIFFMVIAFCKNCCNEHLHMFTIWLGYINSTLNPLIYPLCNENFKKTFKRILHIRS

[5] = target: 5-hydroxytryptamine receptor 2B (Homo sapiens, UniProt P41595); experiment: as §1, with “HTR2B” for “ADRB3”
Chain of 5-hydroxytryptamine receptor 2B (P41595 whole entry): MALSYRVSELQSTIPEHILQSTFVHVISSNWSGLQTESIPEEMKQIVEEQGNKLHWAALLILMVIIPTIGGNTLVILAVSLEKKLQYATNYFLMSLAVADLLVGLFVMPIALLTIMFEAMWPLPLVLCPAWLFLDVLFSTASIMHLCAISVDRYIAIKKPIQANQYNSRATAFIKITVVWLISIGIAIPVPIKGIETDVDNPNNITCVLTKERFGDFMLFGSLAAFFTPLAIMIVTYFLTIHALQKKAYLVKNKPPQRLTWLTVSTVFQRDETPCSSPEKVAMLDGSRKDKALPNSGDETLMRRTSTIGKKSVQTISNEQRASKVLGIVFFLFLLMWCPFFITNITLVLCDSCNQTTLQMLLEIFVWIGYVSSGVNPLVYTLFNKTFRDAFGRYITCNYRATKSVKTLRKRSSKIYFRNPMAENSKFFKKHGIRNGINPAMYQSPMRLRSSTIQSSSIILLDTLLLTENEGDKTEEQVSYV

[6] = target: T1, Alpha-1D adrenergic receptor (Homo sapiens, UniProt P25100); experiment: as §1, with “ADRA1D” for “ADRB3”
T1 sequence (P25100 whole entry): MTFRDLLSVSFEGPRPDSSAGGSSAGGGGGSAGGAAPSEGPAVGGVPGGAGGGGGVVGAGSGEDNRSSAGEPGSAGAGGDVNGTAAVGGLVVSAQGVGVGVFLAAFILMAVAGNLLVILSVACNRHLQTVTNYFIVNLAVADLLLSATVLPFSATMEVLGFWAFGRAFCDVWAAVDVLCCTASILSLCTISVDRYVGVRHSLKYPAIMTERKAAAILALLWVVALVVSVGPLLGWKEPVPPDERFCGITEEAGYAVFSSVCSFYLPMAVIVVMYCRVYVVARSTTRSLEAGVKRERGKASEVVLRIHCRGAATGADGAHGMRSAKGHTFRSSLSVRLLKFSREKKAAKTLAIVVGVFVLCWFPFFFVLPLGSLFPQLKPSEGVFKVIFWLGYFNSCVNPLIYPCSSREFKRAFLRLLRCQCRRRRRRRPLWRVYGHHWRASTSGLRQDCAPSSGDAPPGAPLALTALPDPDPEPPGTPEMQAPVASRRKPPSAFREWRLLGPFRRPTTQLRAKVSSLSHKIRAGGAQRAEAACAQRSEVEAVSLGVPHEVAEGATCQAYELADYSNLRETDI

[7] = target: T2, 5-hydroxytryptamine receptor 3A (Homo sapiens, UniProt P46098); experiment: as §1, with “HTR3A” for “ADRB3”
T2 sequence (P46098 whole entry): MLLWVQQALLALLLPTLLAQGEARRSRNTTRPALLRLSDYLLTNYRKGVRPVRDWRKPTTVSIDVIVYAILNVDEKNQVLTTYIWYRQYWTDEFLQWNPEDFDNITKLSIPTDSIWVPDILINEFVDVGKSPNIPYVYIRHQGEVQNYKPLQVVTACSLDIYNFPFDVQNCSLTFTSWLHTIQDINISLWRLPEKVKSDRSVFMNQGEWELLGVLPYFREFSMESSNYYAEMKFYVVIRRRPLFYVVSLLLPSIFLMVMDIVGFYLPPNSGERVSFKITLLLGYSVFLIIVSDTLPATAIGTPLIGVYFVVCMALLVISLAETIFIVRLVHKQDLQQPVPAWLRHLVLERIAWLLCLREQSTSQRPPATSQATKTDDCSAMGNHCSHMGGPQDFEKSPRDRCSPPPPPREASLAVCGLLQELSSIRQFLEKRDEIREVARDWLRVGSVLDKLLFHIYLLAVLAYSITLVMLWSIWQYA

[8] = target: Sigma non-opioid intracellular receptor 1 (Homo sapiens, UniProt Q99720); experiment: as §1, with “SIGMAR1” for “ADRB3”
Chain of Sigma non-opioid intracellular receptor 1 (Q99720 whole entry): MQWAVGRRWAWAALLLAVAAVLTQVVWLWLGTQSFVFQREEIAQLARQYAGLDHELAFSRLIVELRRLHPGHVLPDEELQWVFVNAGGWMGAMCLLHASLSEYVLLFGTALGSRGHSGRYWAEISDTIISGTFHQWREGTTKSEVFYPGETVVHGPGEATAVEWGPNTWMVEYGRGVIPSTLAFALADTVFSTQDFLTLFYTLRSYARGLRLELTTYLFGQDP

Histamine H4 receptor = Histamine H4 receptor (Homo sapiens, UniProt Q9H3N8); experiment: as §1, with “HRH4” for “ADRB3”
[9] = target: Sigma intracellular receptor 2 (Homo sapiens, UniProt Q5BJF2); experiment: as §1, with “TMEM97” for “ADRB3”
Chain of Sigma intracellular receptor 2 (Q5BJF2 whole entry): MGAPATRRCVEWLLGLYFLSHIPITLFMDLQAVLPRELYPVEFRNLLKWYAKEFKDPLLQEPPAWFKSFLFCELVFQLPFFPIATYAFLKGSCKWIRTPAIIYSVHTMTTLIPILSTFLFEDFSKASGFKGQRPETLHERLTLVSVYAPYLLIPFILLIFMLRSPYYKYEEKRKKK

[10] = target: T3, Alpha-2A adrenergic receptor (Homo sapiens, UniProt P08913); experiment: as §1, with “ADRA2A” for “ADRB3”
T3 sequence (P08913 whole entry): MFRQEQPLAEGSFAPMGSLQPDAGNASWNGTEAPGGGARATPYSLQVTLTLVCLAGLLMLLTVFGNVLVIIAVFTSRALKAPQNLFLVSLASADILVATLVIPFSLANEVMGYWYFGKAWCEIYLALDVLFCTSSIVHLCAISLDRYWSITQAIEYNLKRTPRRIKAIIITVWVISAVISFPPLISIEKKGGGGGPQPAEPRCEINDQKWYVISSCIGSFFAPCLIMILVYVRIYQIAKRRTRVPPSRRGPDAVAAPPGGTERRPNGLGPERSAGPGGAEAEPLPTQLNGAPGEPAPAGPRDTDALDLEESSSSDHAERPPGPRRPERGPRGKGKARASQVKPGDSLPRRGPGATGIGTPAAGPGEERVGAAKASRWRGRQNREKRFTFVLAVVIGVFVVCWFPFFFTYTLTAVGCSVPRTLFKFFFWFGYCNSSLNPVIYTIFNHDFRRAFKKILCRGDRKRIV

Mu-type opioid receptor = Mu-type opioid receptor (Homo sapiens, UniProt P35372); experiment: as §1, with “OPRM1” for “ADRB3”
Chain of Mu-type opioid receptor (P35372 whole entry): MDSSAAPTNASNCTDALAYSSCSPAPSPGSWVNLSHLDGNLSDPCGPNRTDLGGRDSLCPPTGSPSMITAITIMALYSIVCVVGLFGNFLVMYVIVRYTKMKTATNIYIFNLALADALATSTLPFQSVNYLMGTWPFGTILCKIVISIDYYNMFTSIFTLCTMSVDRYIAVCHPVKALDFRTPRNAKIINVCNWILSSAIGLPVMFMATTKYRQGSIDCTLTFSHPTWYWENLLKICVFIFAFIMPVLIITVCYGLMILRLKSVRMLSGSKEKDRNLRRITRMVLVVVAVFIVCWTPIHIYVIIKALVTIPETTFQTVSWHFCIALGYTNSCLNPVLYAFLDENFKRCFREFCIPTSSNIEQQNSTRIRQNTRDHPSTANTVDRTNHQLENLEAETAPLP

[11] = target: T4, 5-hydroxytryptamine receptor 2C (Homo sapiens, UniProt P28335); experiment: as §1, with “HTR2C” for “ADRB3”
T4 sequence (P28335 whole entry): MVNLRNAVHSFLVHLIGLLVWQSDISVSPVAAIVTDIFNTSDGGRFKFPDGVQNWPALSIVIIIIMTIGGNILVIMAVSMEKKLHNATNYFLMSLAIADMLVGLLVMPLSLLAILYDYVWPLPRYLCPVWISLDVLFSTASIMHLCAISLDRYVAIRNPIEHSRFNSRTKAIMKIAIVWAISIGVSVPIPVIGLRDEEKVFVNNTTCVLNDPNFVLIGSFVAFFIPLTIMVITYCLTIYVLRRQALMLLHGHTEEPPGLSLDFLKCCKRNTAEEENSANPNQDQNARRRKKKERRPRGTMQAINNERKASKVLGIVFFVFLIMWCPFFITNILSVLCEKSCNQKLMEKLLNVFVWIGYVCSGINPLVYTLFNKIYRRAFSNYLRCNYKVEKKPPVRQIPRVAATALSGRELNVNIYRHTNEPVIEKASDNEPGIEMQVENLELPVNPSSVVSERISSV

[12] = target: Kappa-type opioid receptor (Homo sapiens, UniProt P41145); experiment: as §1, with “OPRK1” for “ADRB3”
Chain of Kappa-type opioid receptor (P41145 whole entry): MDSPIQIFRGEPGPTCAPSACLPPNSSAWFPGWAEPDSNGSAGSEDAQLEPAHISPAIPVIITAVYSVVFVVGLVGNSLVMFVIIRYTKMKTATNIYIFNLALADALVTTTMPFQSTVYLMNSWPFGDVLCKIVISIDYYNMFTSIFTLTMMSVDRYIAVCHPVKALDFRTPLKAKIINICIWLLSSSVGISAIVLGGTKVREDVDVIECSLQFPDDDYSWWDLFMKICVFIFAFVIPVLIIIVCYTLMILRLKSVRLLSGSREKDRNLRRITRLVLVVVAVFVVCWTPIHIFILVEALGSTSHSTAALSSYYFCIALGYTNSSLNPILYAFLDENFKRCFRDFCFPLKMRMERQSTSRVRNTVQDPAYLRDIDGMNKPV

[13] = target: 5-hydroxytryptamine receptor 5A (Homo sapiens, UniProt P47898); experiment: as §1, with “HTR5A” for “ADRB3”
[14] = target: T5, Alpha-1B adrenergic receptor (Homo sapiens, UniProt P35368); experiment: as §1, with “ADRA1B” for “ADRB3”
T5 sequence (P35368 whole entry): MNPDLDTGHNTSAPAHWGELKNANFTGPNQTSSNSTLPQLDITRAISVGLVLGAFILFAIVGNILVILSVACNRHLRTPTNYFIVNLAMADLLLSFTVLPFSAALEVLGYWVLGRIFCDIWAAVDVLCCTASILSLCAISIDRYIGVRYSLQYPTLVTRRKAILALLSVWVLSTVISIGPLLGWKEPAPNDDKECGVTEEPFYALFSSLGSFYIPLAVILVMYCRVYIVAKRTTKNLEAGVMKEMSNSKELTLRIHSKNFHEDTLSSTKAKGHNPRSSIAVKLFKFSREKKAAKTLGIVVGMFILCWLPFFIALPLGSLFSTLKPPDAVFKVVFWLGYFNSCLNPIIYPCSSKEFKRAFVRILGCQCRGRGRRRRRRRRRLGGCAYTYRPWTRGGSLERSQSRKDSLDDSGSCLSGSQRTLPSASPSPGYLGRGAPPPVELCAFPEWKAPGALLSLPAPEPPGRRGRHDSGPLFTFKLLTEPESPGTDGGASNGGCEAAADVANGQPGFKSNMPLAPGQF

[15] = target: Sodium-dependent noradrenaline transporter (Homo sapiens, UniProt P23975); experiment: as §1, with “SLC6A2” for “ADRB3”
Chain of Sodium-dependent noradrenaline transporter (P23975 whole entry): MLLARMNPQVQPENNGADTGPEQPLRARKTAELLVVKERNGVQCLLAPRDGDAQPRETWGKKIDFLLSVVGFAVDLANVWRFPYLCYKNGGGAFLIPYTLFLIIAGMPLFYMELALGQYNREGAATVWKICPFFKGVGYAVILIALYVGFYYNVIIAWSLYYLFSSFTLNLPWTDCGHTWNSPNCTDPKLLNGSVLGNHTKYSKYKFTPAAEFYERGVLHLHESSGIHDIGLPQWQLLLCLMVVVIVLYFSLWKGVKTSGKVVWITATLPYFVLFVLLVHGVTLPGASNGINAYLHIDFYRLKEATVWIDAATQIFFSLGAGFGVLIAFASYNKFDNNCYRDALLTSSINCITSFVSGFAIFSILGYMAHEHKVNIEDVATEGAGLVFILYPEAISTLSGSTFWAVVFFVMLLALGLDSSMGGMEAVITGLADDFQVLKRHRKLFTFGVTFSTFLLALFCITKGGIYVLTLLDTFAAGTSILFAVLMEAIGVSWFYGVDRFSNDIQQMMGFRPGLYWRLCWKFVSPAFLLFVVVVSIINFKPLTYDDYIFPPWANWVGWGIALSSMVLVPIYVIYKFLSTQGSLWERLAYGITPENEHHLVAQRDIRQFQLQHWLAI

[16] = target: 5-hydroxytryptamine receptor 1D (Homo sapiens, UniProt P28221); experiment: as §1, with “HTR1D” for “ADRB3”
Chain of 5-hydroxytryptamine receptor 1D (P28221 whole entry): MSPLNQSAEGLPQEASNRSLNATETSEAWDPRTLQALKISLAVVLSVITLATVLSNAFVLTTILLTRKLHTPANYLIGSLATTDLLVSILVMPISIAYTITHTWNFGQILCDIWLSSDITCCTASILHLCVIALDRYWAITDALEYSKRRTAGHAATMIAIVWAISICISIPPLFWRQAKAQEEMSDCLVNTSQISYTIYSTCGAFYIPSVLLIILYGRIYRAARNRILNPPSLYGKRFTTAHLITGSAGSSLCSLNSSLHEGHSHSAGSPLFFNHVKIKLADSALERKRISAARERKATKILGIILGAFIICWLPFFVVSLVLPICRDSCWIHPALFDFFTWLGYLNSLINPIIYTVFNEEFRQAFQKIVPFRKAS

Ki [1] [nM]	Ki [2] [nM]	Ki [3] [nM]	Ki [4] [nM]	Ki (Histamine H1 receptor) [nM]	Ki [5] [nM]	Ki [6] [nM]	Ki [7] [nM]	Ki [8] [nM]	Ki (Histamine H4 receptor) [nM]	Ki [9] [nM]	Ki [10] [nM]	Ki (Mu-type opioid receptor) [nM]	Ki [11] [nM]	Ki [12] [nM]	Ki [13] [nM]	Ki [14] [nM]	Ki [15] [nM]	Ki [16] [nM]	Compound
> 10000	> 10000	–	–	–	–	–	–	–	–	–	–	–	–	–	–	–	–	–	O=C(Nc1ccc(Cl)cc1)Nc1cccc(-c2cccc(N3CCCC3)n2)c1
–	–	> 10000	6430	1280	280	8030	352	463	18	–	–	–	–	–	–	–	–	–	Nc1nc2c(c(N3CCNCC3)n1)CCC1=C2[C@@H]2CCCC[C@@H]2O1
2100	4460	–	–	–	804	–	988	598	–	663	590	3580	1280	898	1910	2660	5620	1080	COc1ccc(NS(=O)(=O)c2sc3ccc(Cl)cc3c2C)cc1N1CCNCC1

From ChEMBL document CHEMBL5442175, “EUbOPEN Chemogenomics Library - PDSP Secondary Binding” (2024)
